The NIST ThermoML archive (doi:10.1016/j.fluid.2013.07.015)
Numbers after ± are expanded uncertainties.

What was measured:
[1] = refractive index (Na D-line) (dimensionless); conditions: 298.15 K; 101.33 kPa; Liquid; Standard Abbe refractometry
[2] = Liquid; for mass density: 293.15 K, 101.33 kPa, Vibrating tube method; for Normal boiling temperature: Closed cell (Static) method

refractive index [1] | mass density [2] [kg/m3] | Normal boiling temperature [2] [°C] | Structure (SMILES)
1.37104 ± 0.00052 | 1044.3 ± 0.96 | 117.1 ± 1.1 | CC(=O)O [acetic acid]
1.41123 ± 0.00052 | 881.3 ± 0.74 | 187.2 ± 1.1 | CCCCCCC(=O)OCC [ethyl heptanoate]
1.3721 ± 0.00052 | 1218.5 ± 1.4 | 101.1 ± 1.1 | O=CO [formic acid]
1.33244 ± 0.00033 | 999.9 ± 0.24 | 100.1 ± 1 | O [water]
